Results on 24 molecules are retold here after patent US6174858A, “Conjugates useful in the treatment of prostate cancer” (Merck & Co., Inc., priority 1998, dated 2001).

The subject of one experiment is Colo320DM cells. In words: In vitro cytotoxicity, Alamar Blue assay, Colo320DM control cell line (does not express free PSA). It counts as cell-based. The procedure: (§1) In vitro Assay of Cytotoxicity of Peptidyl Derivatives of Vinca Drugs
(§2) The cytotoxicities of the cleaveable oligopeptide-vinca drug conjugates, prepared as described in Example 3, against a line of cells which is known to be killed by unmodified vinca drug was assessed with an Alamar Blue assay. Specifically, cell cultures of LNCap prostate tumor cells, Colo32ODM cells (designated C320) or T47D cells in 96 well plates was diluted with medium containing various concentrations of a given conjugate (final plate well volume of 200 μl). […] The cells were incubated for 3 days at 37° C., 20 μl of Alamar Blue is added to the assay well. The cells were further incubated and the assay plates were read on a EL-310 ELISA reader at the dual wavelengths of 570 and 600 nm at 4 and 7 hours after addition of Alamar Blue. Relative percentage viability at the various concentration of conjugate tested was then calculated versus control (no conjugate) cultures and an EC50 was determined. Unless otherwise indicated, the acetate salt of the conjugate was tested.
Background: The colour change of resazurin is a common sign of viable cells or microbes.

For experiment [1], the system named is LNCaP prostate tumor cells. As to the kind of experiment: In vitro cytotoxicity, Alamar Blue assay, LNCaP cell kill. It counts as cell-based. The procedure:
as §1
as §2, with “Specifically,” for “The cytotoxicities of the cleaveable oligopeptide-vinca drug conjugates, prepared as described in Example 3, against a line of cells which is known to be killed by unmodified vinca drug was assessed with an Alamar Blue assay. Specifically,”

Another experiment concerns the target T1, free PSA (York PSA) (Homo sapiens, UniProt P07288).
T1 construct: purchased York ('York PSA')
In words: Recognition of oligopeptide-vinca drug conjugates by free PSA (time to 50% cleavage, HPLC). It is filed as biochemical. The settings on record: for Time to 50% Substrate Cleavage by York PSA: conjugate to PSA molar ratio 100 to 1, pH 7.4. The procedure: The reaction was quenched after various reaction times by the addition of trifluoroacetic acid (TFA) to a final 1% (volume/volume). Alternatively the reaction is quenched with 10 mM ZnCl2. The quenched reaction was analyzed by HPLC on a reversed-phase C18 column using an aqueous 0.1%TFA/acetonitrile gradient. The amount of time (in minutes) required for 50% cleavage of the noted oligopeptide-cytotoxic agent conjugates with enzymatically active free PSA were then calculated.

Setting [2] is: 72 HRS, read-out: Colo320DM EC 50.
Where [3] appears, read: 72 HRS, read-out: LNCaP Cell Kill in 72 HRS. {48 HRS} EC 50.
Setting [4] is: 72 HRS, second part of Table 2, read-out: Colo320DM EC 50.
[5] abbreviates: 72 HRS, second part of Table 2, read-out: LNCaP Cell Kill in 72 HRS. {48 HRS} EC 50.

Where two headings read alike, the source gives them in different places. Where only a bound is given, the exact number is not on record here.

T1 sequence (P07288 25-261): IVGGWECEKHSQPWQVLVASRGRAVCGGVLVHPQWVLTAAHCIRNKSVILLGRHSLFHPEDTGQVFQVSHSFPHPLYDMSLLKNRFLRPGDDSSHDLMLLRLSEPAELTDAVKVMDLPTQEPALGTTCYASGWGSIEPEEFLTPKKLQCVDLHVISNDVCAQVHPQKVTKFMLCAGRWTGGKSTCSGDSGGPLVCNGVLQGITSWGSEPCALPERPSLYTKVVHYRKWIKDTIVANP

On to “4-O-((2-OH)Ac-Abu-SSChgQ-S-P)-dAc-VIN: peptide-vinca drug conjugate, SEQ ID NO 91 (XSSXQSP; N-hydroxyacetyl; desacetylvinblastine conjugate)”, for which the values for the EC50 (in the experiment with Colo320DM cells (setting [2]); in experiment [1] (setting [3])) were 52.5 µM and 11.9 µM, respectively. Moreover, the “Time to 50% Substrate Cleavage by York PSA” value with free PSA (York PSA) came to 110 min.
For “4-O-(Ac-3-Pal-SSChgQS-P)-dAc-VIN: peptide-vinca drug conjugate, SEQ ID NO 92”, in that order: 8 µM, 5.8 µM and 80 min.
With “4-O-(Ac-4-trans-L-HypSSChgQ-S-P)-dAc-VIN: peptide-vinca drug conjugate, SEQ ID NO 96 (XSSXQSP; N-acetyl; desacetylvinblastine conjugate)”, the EC50 in the experiment with Colo320DM cells (setting [2]) is 83.9 µM; in the experiment with Colo320DM cells (in 5% FBS, read-out: Colo320DM EC 50 in 5% FBS) it was 26 µM; in experiment [1] (setting [3]), 47.9 µM; in experiment [1] (in 5% FBS, read-out: LNCaP Cell Kill EC 50 in 5% FBS) it was more than 16 µM. Besides, in the experiment with free PSA (York PSA), the “Substrate cleavage by York PSA after 1 HOUR” value amounted to 8%.
Turning to “4-O-(Ac-4-trans-L-HypSSChgQ-SS-4-trans-L-Hyp)-dAc-VIN: peptide-vinca drug conjugate, SEQ ID NO 95 (XSSXQSSX; N-acetyl; desacetylvinblastine conjugate)”, the EC50 was 13.1 µM with Colo320DM cells (setting [2]) and 16.3 µM in experiment [1] (setting [3]). The “Time to 50% Substrate Cleavage by York PSA” value with free PSA (York PSA) came out at 13 min.
For the molecule “4-O-(Ac-4-trans-L-HypSSChgQSS-(d)-Pro)-(dAc)-VIN: peptide-vinca drug conjugate, SEQ ID NO 87 (XSSXQSSP; N-acetyl; D-Pro; desacetylvinblastine conjugate)”, the results for the EC50 (with Colo320DM cells (setting [2]); in experiment [1] (setting [3])) were 8.1 µM and 4.1 µM, respectively. Moreover, the “Substrate cleavage by York PSA after 1 HOUR” value with free PSA (York PSA) was determined as 34%.
For “4-O-(Ac-4-trans-L-HypSSChgQSS-Sar)-(dAc)-VIN: peptide-vinca drug conjugate, printed under SEQ ID NO 86 and 105 (XSSXQSSG; N-acetyl; desacetylvinblastine conjugate)”, the EC50 in the experiment on Colo320DM cells (setting [2]) is 13 µM; in the experiment on Colo320DM cells (setting [4]), 12 µM; in experiment [1] (setting [3]), 4.1 µM; in experiment [1] (setting [5]), 12 µM. Moreover, the “Time to 50% Substrate Cleavage by York PSA” value with free PSA (York PSA) came to 32 min; with free PSA (York PSA) (listed as Ac-4-trans-L-HypSSChgQSS-(4-O-Sar)-(dAc)-VIN), 15 min.
In the case of “4-O-(Ac-4-trans-L-HypSSChgQSV-glycolyl)-VIN: peptide-vinca drug conjugate, SEQ ID NO 88 (XSSXQSV; N-acetyl; glycolyl linker; vinblastine conjugate)”, the figures for the EC50 (with Colo320DM cells (setting [2]); in experiment [1] (setting [3])) were 8.1 µM and 4.1 µM, respectively. In addition, the “Time to 50% Substrate Cleavage by York PSA” value with free PSA (York PSA) was determined as 8 min.
With “4-O-(Ac-4-trans-L-HypSSChgQSV-lactyl)-dAc-VIN: peptide-vinca drug conjugate, SEQ ID NO 94”, the EC50 was 8.1 µM with Colo320DM cells (setting [2]) and 3.1 µM in experiment [1] (setting [3]). In the experiment with free PSA (York PSA) (PSA digestion), the “Remark printed with the cleavage time (stability of conjugate / fate of product)” value was “stable”. Further, the “Time to 50% Substrate Cleavage by York PSA” value with free PSA (York PSA) was determined as 7 min.
On to `CCC(N)C(=O)OC1C2(CC)C=CCN3CCC4(c5cc(C6(C(=O)OC)CC7CN(CCc8c6[nH]c6ccccc86)CC(O)(CC)C7)c(OC)cc5N(C)C4C1(O)C(=O)OC)C32` (racemic) [4-O-Abu-(dAc)-VIN, racemic mixture], for which the EC50 in the experiment on Colo320DM cells (setting [4]) is 5.5 µM; in experiment [1] (setting [5]), 3.8 µM.
Turning to `CCC1(O)CC2CN(CCc3c([nH]c4ccccc34)C(C(=O)OC)(c3cc4c(cc3OC)N(C)C3C(O)(C(=O)OC)C(OC(=O)C5CCCN5C(=O)C(N)CO)C5(CC)C=CCN6CCC43C65)C2)C1` (centres unmarked) [4-O-(SP)-dAc-VIN], the EC50 in the experiment on Colo320DM cells (setting [4]) stood at 0.3 µM; in experiment [1] (setting [5]) it was 0.1 µM.
For `CCC1(O)CC2CN(CCc3c([nH]c4ccccc34)C(C(=O)OC)(c3cc4c(cc3OC)N(C)C3C(O)(C(=O)OC)C(OC(=O)C5CCCN5C(=O)C(CO)NC(=O)C(N)CO)C5(CC)C=CCN6CCC43C65)C2)C1` (centres unmarked) [4-O-(SSP)-dAc-VIN], in that order: 14.5 µM and 2 µM.
As to `CCC1(O)CC2CN(CCc3c([nH]c4ccccc34)C(C(=O)OC)(c3cc4c(cc3OC)N(C)C3C(O)(C(=O)OC)C(OC(=O)C5CCCN5)C5(CC)C=CCN6CCC43C65)C2)C1` (centres unmarked) [4-O-(d)-prolyl-(dAc)-VIN ester], the EC50 is 4.1 µM with Colo320DM cells (setting [4]) and 2 µM in experiment [1] (setting [5]).
On to `CCC1(O)CC2CN(CCc3c([nH]c4ccccc34)C(C(=O)OC)(c3cc4c(cc3OC)N(C)C3C(O)(C(=O)OC)C(OC(=O)C5CCCN5)C5(CC)C=CCN6CCC43C65)C2)C1` (centres unmarked) [4-O-(prolyl)-dAc-VIN, 4-des- Acetylvinblastine 4-O-(Prolyl) ester], for which the values for the EC50 (with Colo320DM cells (setting [4]); in experiment [1] (setting [5])) were 4.1 µM and 0.7 µM, respectively.
Take `CCC(N)C(=O)O[C@@H]1[C@]2(CC)C=CCN3CC[C@@]4(c5cc([C@@]6(C(=O)OC)C[C@@H]7CN(CCc8c6[nH]c6ccccc86)C[C@](O)(CC)C7)c(OC)cc5N(C)[C@H]4[C@@]1(O)C(=O)OC)[C@@H]32` (some centres unmarked) [4-O-Abu-(dAc)-VIN, I isoform]: the EC50 in the experiment with Colo320DM cells (setting [4]) came to 2.3 µM; in experiment [1] (setting [5]), 3.9 µM.
As to `CCC1(O)CC2CN(CCc3c([nH]c4ccccc34)C(C(=O)OC)(c3cc4c(cc3OC)N(C)C3C(O)(C(=O)OC)C(OC(=O)C(C)NC)C5(CC)C=CCN6CCC43C65)C2)C1` (centres unmarked) [4-O-[N-Me-dA]-dAc-VIN], the EC50 stood at 1.7 µM in the experiment with Colo320DM cells (setting [4]) and 1 µM in experiment [1] (setting [5]).
In the case of `CC[C@]1(O)C[C@@H]2CN(CCc3c([nH]c4ccccc34)[C@@](C(=O)OC)(c3cc4c(cc3OC)N(C)[C@H]3[C@@](O)(C(=O)OC)[C@H](OC(=O)CN)[C@]5(CC)C=CCN6CC[C@]43[C@@H]65)C2)C1` [4-O-glycine-(dAc)-VIN], the EC50 came to 1.8 µM in the experiment on Colo320DM cells (setting [2]) and 0.3 µM in experiment [1] (setting [3]).
For the molecule `CC[C@]1(O)C[C@H]2CN(CCc3c([nH]c4ccccc34)[C@@](C(=O)OC)(c3cc4c(cc3OC)N(C)[C@H]3[C@@](O)(C(=O)OC)[C@H](OC(=O)[C@@H](N)CC(C)C)[C@]5(CC)C=CCN6CC[C@]43[C@@H]65)C2)C1` [4-O-leucyl-(dAc)-VIN], the EC50 (in the experiment with Colo320DM cells (setting [4]); in experiment [1] (setting [5])) was 4.5 µM in each case.
As to `CCC1(O)CC2CN(CCc3c([nH]c4ccccc34)C(C(=O)OC)(c3cc4c(cc3OC)N(C)C3C(O)(C(=O)OC)C(OC(=O)C5CCCCN5)C5(CC)C=CCN6CCC43C65)C2)C1` (centres unmarked) [4-O-pipecolyl-dAc-VIN], the EC50 (in the experiment on Colo320DM cells (setting [4]); in experiment [1] (setting [5])) was 0.7 µM throughout.
As to `CC[C@]1(O)C[C@H]2CN(CCc3c([nH]c4ccccc34)[C@@](C(=O)OC)(c3cc4c(cc3OC)N(C)[C@H]3[C@@](O)(C(=O)OC)[C@H](OC(=O)CNC)[C@]5(CC)C=CCN6CC[C@]43[C@@H]65)C2)C1` [4-O-sarcosyl-(dAc)-VIN], the EC50 with Colo320DM cells (setting [2]) was 1.8 µM; in experiment [1] (setting [3]) it was 1.3 µM.
As to `CCC1(O)CC2CN(CCc3c([nH]c4ccccc34)C(C(=O)OC)(c3cc4c(cc3OC)N(C)C3C(O)(C(=O)OC)C(OC(=O)CO)C5(CC)C=CCN6CCC43C65)C2)C1` (centres unmarked) [4-hydroxyacetyl-VIN], the EC50 was determined as 3.3 µM in the experiment on Colo320DM cells (setting [4]) and 1.3 µM in experiment [1] (setting [5]).
As to `CCC1(O)CC2CN(CCc3c([nH]c4ccccc34)C(C(=O)OC)(c3cc4c(cc3OC)N(C)C3C(O)(C(=O)OC)C(OC(=O)C5CC(O)CN5)C5(CC)C=CCN6CCC43C65)C2)C1` [(4-O-4-trans-L-Hyp)-dAc-VIN], the EC50 amounted to 1.1 µM in the experiment on Colo320DM cells (setting [2]) and 0.6 µM in experiment [1] (setting [3]).
With `CCC1(O)CC2CN(CCc3c([nH]c4ccccc34)C(C(=O)OC)(c3cc4c(cc3OC)N(C)C3C(O)(C(=O)OC)C(OC(=O)C(C)N)C5(CC)C=CCN6CCC43C65)C2)C1` (centres unmarked) [(4-O-Ala)-(dAc)-VIN], the figures for the EC50 (in the experiment on Colo320DM cells (setting [4]); in experiment [1] (setting [5])) were 4.2 µM and 0.6 µM, respectively.
For `CCC1(O)CC2CN(CCc3c([nH]c4ccccc34)C(C(=O)OC)(c3cc4c(cc3OC)N(C)C3C(O)(C(=O)OC)C(OC(=O)C(N)Cc5ccccc5)C5(CC)C=CCN6CCC43C65)C2)C1` (centres unmarked) [(4-O-Phe)-(dAc)-VIN], in that order: 2.2 µM and 3.8 µM.
With `CC[C@]1(O)C[C@@H]2CN(CCc3c([nH]c4ccccc34)[C@@](C(=O)OC)(c3cc4c(cc3OC)N(C)[C@H]3[C@@](O)(C(=O)OC)[C@H](OC(C)=O)[C@]5(CC)C=CCN6CC[C@]43[C@@H]65)C2)C1` [VINBLASTINE, vinblastine, reference compound], the EC50 in the experiment with Colo320DM cells (Homo sapiens, COLO 320DM, 72 HRS, read-out: Colo320DM EC 50) turned out to be 0.5 µM; in experiment [1] (Homo sapiens, 72 HRS, read-out: LNCaP Cell Kill in 72 HRS. {48 HRS} EC 50), 0.5 µM.
